According to patent US11590139B2, “Substituted aminopurine compounds, compositions thereof, and methods of treatment therewith” (Signal Pharmaceuticals, LLC, priority 2014, dated 2023):

test system: Lox-IMVI melanoma cell line; assay: Lox-IMVI anti-proliferative assay (growth inhibition, Cell Titer-Glo); type: cell-based, human; conditions: Homo sapiens; IC50 activity level in the cell-based Lox-IMVI anti-proliferative assay; read-out: Activity
Experimental: Determination of the Growth Inhibitory Effect of Aminopurine Compounds. The Lox-IMVI melanoma cell line (Source: NCI-DCTD, catalog No. 0507283) was maintained and tested in RPMI+10% FBS. The seeding density for the cell line was optimized to ensure assay linearity in 384-well plates.
Increasing concentrations of Aminopurine Compound (0.5 nM to 10 μM) were spotted in a 10-point serial dilution fashion (3-fold dilution) in duplicate within the plate via an acoustic dispenser (EDC ATS-100) into an empty 384-well plate. The dimethyl sulfoxide (DMSO) concentration was kept constant for a final assay concentration of 0.2% DMSO. Prior to testing, cells were grown and expanded in culture flasks to provide sufficient amounts of starting material. Cells were then diluted to their desired densities and added directly to the compound-spotted 384-well plates. Cells were allowed to grow for 72 hours in 5% CO2 at 37° C. At the time when exposure of cells to compound began (t0), initial cell number was assessed via a viability assay (Cell Titer-Glo) by quantifying the level of luminescence generated by adenosine-5′-triphosphate (ATP) present in viable cells. After 72 hours, cell viability of compound-treated cells was assessed via Cell Titer-Glo Luminescent Cell Viability Assay (Promega Corporation, Madison, Wis.) and read for luminescence.
All data was normalized and represented as a percentage of the DMSO-treated control cells after 72 h. Results were expressed as a IC50 value, which is the compound concentration required to inhibit 50% of the untreated control cells during the 72 hours of treatment.
A Four Parameter Logistic Model (Sigmoidal Dose-Response Model) was used to determine the compound's IC50. y=(A+((B−A)/(1+((C/x)^D))))
wherein: • A=YMin • B=YMax • C=EC50 • D=Hill Slope • IC50 is the compound concentration when Y=50% of DMSO control • Y=Luminescence unit
All inhibition curves were processed and evaluated using XLFit and Activity Base (IDBS).

| IC50 [nM] | Compound |
| --- | --- |
| > 1000 | CC1(C)CC[C@@H](Nc2ncc3nc(Nc4c(F)cc(Cl)cc4Cl)n([C@H]4CC[C@@H](C(N)=O)CC4)c3n2)C[C@H]1O [Example 389, (1S,4s)-4-(8-(2,4-dichloro-6-fluorophenylamino)-2-((1R,3R)-3-hydroxy-4,4-dimethylcyclohexylamino)-9H-purin-9-yl)cyclohexanecarboxamide] |
| > 1000 | Cc1ccc(Nc2nc3cnc(NC4CCOCC4)nc3n2[C@H]2CC[C@@H](C(N)=O)CC2)c(Cl)c1Cl [Example 85, (1s,4s)-4-(8-(2,3-dichloro-4-methylphenylamino)-2-(tetrahydro-2H-pyran-4-ylamino)-9H-purin-9-yl)cyclohexanecarboxamide] |
| 500 to 1000 | NC(=O)[C@H]1CC[C@@H](n2c(Nc3c(F)cc(Cl)cc3Cl)nc3cnc(N[C@H]4CCOC4)nc32)CC1 [Example 244, (1R,4s)-4-(8-(2,4-dichloro-6-fluorophenylamino)-2-((S)-tetrahydrofuran-3-ylamino)-9H-purin-9-yl)cyclohexanecarboxamide] |
| > 1000 | NC(=O)[C@H]1CC[C@@H](n2c(Nc3c(Cl)cccc3Cl)nc3cnc(NC4COCC4O)nc32)CC1 (stereo partly shown) [Example 180, (1s,4s)-4-(8-(2,6-dichlorophenylamino)-2-(4-hydroxytetrahydrofuran-3-ylamino)-9H-purin-9-yl)cyclohexanecarboxamide] |
| > 1000 | NC(=O)[C@H]1CC[C@@H](n2c(Nc3c(F)cc(F)cc3F)nc3cnc(N[C@H]4C[C@H](O)C4)nc32)CC1 [Example 279, (1s,4s)-4-(2-((1r,3r)-3-hydroxycyclobutylamino)-8-(2,4,6-trifluorophenylamino)-9H-purin-9-yl)cyclohexanecarboxamide] |
| > 1000 | CS(=O)(=O)N1CCC(Nc2ncc3nc(Nc4c(Cl)cccc4Cl)n([C@H]4CC[C@@H](C(N)=O)CC4)c3n2)CC1 [Example 293, (1s,4s)-4-(8-(2,6-dichlorophenylamino)-2-(1-(methylsulfonyl)piperidin-4-ylamino)-9H-purin-9-yl)cyclohexanecarboxamide] |
| > 1000 | C[C@H](CO)Nc1ncc2nc(Nc3c(Cl)cc(F)cc3Cl)n([C@H]3CC[C@@H](C(N)=O)CC3)c2n1 [Example 131, (1S,4s)-4-(8-(2,6-dichloro-4-fluorophenylamino)-2-((R)-1-hydroxypropan-2-ylamino)-9H-purin-9-yl)cyclohexanecarboxamide] |
| > 1000 | NC(=O)[C@H]1CC[C@@H](n2c(Nc3c(Cl)cc(F)cc3Cl)nc3cnc(NC4COCC4O)nc32)CC1 (stereo partly shown) [Example 183, (1s,4s)-4-(8-(2,6-dichloro-4-fluorophenylamino)-2-(4-hydroxytetrahydrofuran-3-ylamino)-9H-purin-9-yl)cyclohexanecarboxamide] |
| > 1000 | NC(=O)[C@H]1CC[C@@H](n2c(Nc3ccc(Cl)c(F)c3F)nc3cnc(N[C@H]4C[C@H](O)C4)nc32)CC1 [Example 285, (1s,4s)-4-(8-(4-chloro-2,3-difluorophenylamino)-2-((1R,3r)-3-hydroxycyclobutylamino)-9H-purin-9-yl)cyclohexanecarboxamide] |
| < 250 | N#Cc1cc(Cl)c(Nc2nc3cnc(NC4CCCC4)nc3n2[C@H]2CC[C@@H](C(N)=O)CC2)c(Cl)c1 [Example 367, (1s,4s)-4-(2-(cyclopentylamino)-8-(2,6-dichloro-4-cyanophenylamino)-9H-purin-9-yl)cyclohexanecarboxamide] |
| > 1000 | CC[C@@H](CO)Nc1ncc2nc(Nc3c(Cl)cccc3Cl)n([C@H]3CC[C@@H](C(N)=O)CC3)c2n1 [Example 153, (1R,4s)-4-(8-(2,6-dichlorophenylamino)-2-((S)-1-hydroxybutan-2-ylamino)-9H-purin-9-yl)cyclohexanecarboxamide] |
| 250 to 500 | N#Cc1cc(F)c(Nc2nc3cnc(NC4CCCC4)nc3n2[C@H]2CC[C@@H](C(N)=O)CC2)c(Cl)c1 [Example 369, (1s,4s)-4-(8-(2-chloro-4-cyano-6-fluorophenylamino)-2-(cyclopentylamino)-9H-purin-9-yl)cyclohexanecarboxamide] |
| > 1000 | NC(=O)[C@H]1CC[C@@H](n2c(Nc3c(F)cc(F)cc3F)nc3cnc(NC4COC4)nc32)CC1 [Example 55, (1s,4s)-4-(2-(oxetan-3-ylamino)-8-(2,4,6-trifluorophenylamino)-9H-purin-9-yl)cyclohexanecarboxamide] |
| > 1000 | CC1(C)CC[C@@H](Nc2ncc3nc(Nc4c(Cl)cc(F)cc4Cl)n([C@H]4CC[C@@H](C(N)=O)CC4)c3n2)C[C@H]1O [Example 388, (1S,4s)-4-(8-(2,6-dichloro-4-fluorophenylamino)-2-((1R,3R)-3-hydroxy-4,4-dimethylcyclohexylamino)-9H-purin-9-yl)cyclohexanecarboxamide] |
| > 1000 | NC(=O)[C@H]1CC[C@@H](n2c(Nc3c(Cl)cc(Cl)cc3Cl)nc3cnc(NC4CC(F)(F)C4)nc32)CC1 [Example 224, (1s,4s)-4-(2-(3,3-difluorocyclobutylamino)-8-(2,4,6-trichlorophenylamino)-9H-purin-9-yl)cyclohexanecarboxamide] |
| 250 to 500 | NC(=O)[C@H]1CC[C@@H](n2c(Nc3c(F)ccc(F)c3Cl)nc3cnc(NC4CCOCC4)nc32)CC1 [Example 90, (1s,4s)-4-(8-(2-chloro-3,6-difluorophenylamino)-2-(tetrahydro-2H-pyran-4-ylamino)-9H-purin-9-yl)cyclohexanecarboxamide] |

same assay, conditions: Homo sapiens; Lox-IMVI anti-proliferative assay, IC50 activity level; read-out: Activity

| IC50 [nM] | Compound |
| --- | --- |
| > 1000 | NC(=O)[C@H]1CC[C@@H](n2c(Nc3c(Cl)cc(F)cc3Cl)nc3cnc(N[C@H]4CCC[C@H](O)C4)nc32)CC1 [Example 462, (1R,4s)-4-(8-(2,6-dichloro-4-fluorophenylamino)-2-((1S,3S)-3-hydroxycyclohexylamino)-9H-purin-9-yl)cyclohexanecarboxamide] |
| > 1000 | NC(=O)[C@H]1CC[C@@H](n2c(Nc3c(Cl)cc(C(F)(F)F)cc3Cl)nc3cnc(NC4CCCOCC4)nc32)CC1 (stereo partly shown) [Example 544, (1s,4s)-4-(8-(2,6-dichloro-4-(trifluoromethyl)phenylamino)-2-(oxepan-4-ylamino)-9H-purin-9-yl)cyclohexanecarboxamide] |
| < 250 | C[C@]1(C(N)=O)CC[C@@H](n2c(Nc3c(F)cc(C#N)cc3Cl)nc3cnc(NC4CCOCC4)nc32)CC1 [Example 525, (1s,4s)-4-(8-(2-chloro-4-cyano-6-fluorophenylamino)-2-(tetrahydro-2H-pyran-4-ylamino)-9H-purin-9-yl)-1-methylcyclohexanecarboxamide] |
| < 250 | C[C@@H]1COCC[C@H]1Nc1ncc2nc(Nc3c(Cl)cc(C#N)cc3Cl)n([C@H]3CC[C@@H](C(N)=O)CC3)c2n1 [Example 495, (1S,4s)-4-(8-(2,6-dichloro-4-cyanophenylamino)-2-((3S,4R)-3-methyltetrahydro-2H-pyran-4-ylamino)-9H-purin-9-yl)cyclohexanecarboxamide] |

same assay, conditions: Homo sapiens; Lox-IMVI melanoma cell line, anti-proliferative assay; read-out: Activity (IC50 activity level)

| IC50 [nM] | Compound |
| --- | --- |
| > 1000 | NC(=O)[C@H]1CC[C@@H](n2c(Nc3c(Cl)cc(C(F)(F)F)cc3Cl)nc3cnc(N[C@@H]4CCCN(Cc5ccccc5)C4)nc32)CC1 [Example 754, (1S,4s)-4-(2-((R)-1-benzylpiperidin-3-ylamino)-8-(2,6-dichloro-4-(trifluoromethyl)phenylamino)-9H-purin-9-yl)cyclohexanecarboxamide] |
| 250 to 500 | N#Cc1cc(F)c(Nc2nc3cnc(N[C@@H]4CCC(F)(F)C4)nc3n2[C@H]2CC[C@@H](C(N)=O)CC2)c(F)c1 [Example 697, (1S,4s)-4-(8-(4-cyano-2,6-difluorophenylamino)-2-((R)-3,3-difluorocyclopentylamino)-9H-purin-9-yl)cyclohexanecarboxamide] |
| 250 to 500 | COC(=O)N1CCC[C@@H](Nc2ncc3nc(Nc4c(Cl)cc(C#N)cc4Cl)n([C@H]4CC[C@@H](C(N)=O)CC4)c3n2)C1 [Example 708, (R)-methyl 3-(9-((1s,4S)-4-carbamoylcyclohexyl)-8-(2,6-dichloro-4-cyanophenylamino)-9H-purin-2-ylamino)piperidine-1-carboxylate] |
| > 1000 | CS(=O)(=O)C1CC(Nc2ncc3nc(Nc4c(Cl)cc(C(F)(F)F)cc4Cl)n([C@H]4CC[C@@H](C(N)=O)CC4)c3n2)C1 (stereo partly shown) [Example 735, (1s,4s)-4-(8-(2,6-dichloro-4-(trifluoromethyl)phenylamino)-2-(3-(methylsulfonyl)cyclobutylamino)-9H-purin-9-yl)cyclohexanecarboxamide] |

| Compound | IC50 [nM] |
| --- | --- |
| N#Cc1ccc(Nc2nc3cnc(NC4CCOCC4)nc3n2[C@H]2CC[C@@H](C(N)=O)CC2)c(Cl)c1Cl [Example 696, (1s,4s)-4-(8-(2,3-dichloro-4-cyanophenylamino)-2-(tetrahydro-2H-pyran-4-ylamino)-9H-purin-9-yl)cyclohexanecarboxamide] | 500 to 1000 |
